Experimental data reported in US7795290B2 (Genentech, Inc., priority 2004, dated 2010).

These compounds were tested against T1, AKT1 (Homo sapiens, UniProt P31749) (assay: HTS ATP-utilizing enzyme assay, off-chip mobility-shift (Caliper HTS 250)). Conditions: kinase named = inhibitory activity/selectivity; test compound 10 μM; active = greater than three-sigma from mean.
T1 construct: purchased Upstate 14-276
Assay type: biochemical
Outline: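 AKT1 activity was measured by off-chip mobility shift (Caliper HTS 250) as the ratio of peptide substrate to phosphorylated product. Test compound was at 10 μM, with 2.5 h incubation at 20–22° C. EDTA wells served as 100% control and DMSO wells as 0%. Hits were called at three-sigma limits.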

T1 sequence (P31749 whole entry): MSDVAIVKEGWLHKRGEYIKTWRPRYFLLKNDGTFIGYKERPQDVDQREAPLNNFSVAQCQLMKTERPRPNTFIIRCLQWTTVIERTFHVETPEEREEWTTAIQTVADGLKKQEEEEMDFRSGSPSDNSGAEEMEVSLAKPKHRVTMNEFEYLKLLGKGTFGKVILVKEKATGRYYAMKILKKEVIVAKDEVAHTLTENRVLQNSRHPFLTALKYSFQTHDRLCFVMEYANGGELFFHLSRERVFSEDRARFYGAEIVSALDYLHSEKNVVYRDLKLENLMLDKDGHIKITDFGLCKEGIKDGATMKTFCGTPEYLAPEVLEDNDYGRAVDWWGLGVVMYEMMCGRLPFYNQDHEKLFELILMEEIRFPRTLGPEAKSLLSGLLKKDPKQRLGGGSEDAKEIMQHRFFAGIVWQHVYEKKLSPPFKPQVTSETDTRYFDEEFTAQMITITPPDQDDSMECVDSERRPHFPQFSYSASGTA

| Activity | SMILES |
| --- | --- |
| AKT1 | O=C(c1cccs1)N(CCCN1CCC(O)(O)CC1)c1nc(-c2cc3ccccc3o2)cs1 [N-(4-(benzofuran-2-yl)thiazol-2-yl)-N-(3-(4,4-dihydroxypiperidin-1-yl)propyl)thiophene-2-carboxamide] |
| AKT1 | O=C(c1cccs1)N(CCCN1CCN(CCOCCO)CC1)c1nc(-c2cc3ccccc3o2)cs1 [N-(4-(benzofuran-2-yl)thiazol-2-yl)-N-(3-(4-(2-(2-hydroxyethoxy)ethyl)piperazin-1-yl)propyl)thiophene-2-carboxamide] |
| AKT1 | CN(C)C(=O)CN1CCN(CCCN(C(=O)c2cccs2)c2nc(-c3cc4ccccc4o3)cs2)CC1 [N-(4-(benzofuran-2-yl)thiazol-2-yl)-N-(3-(4-(2-(dimethylamino)-2-oxoethyl)piperazin-1-yl)propyl)thiophene-2-carboxamide] |
| AKT1 | CN(C)CCN1CCN(CCCN(C(=O)c2cccs2)c2nc(-c3cc4ccccc4o3)cs2)CC1 [N-(4-(benzofuran-2-yl)thiazol-2-yl)-N-(3-(4-(2-(dimethylamino)ethyl)piperazin-1-yl)propyl)thiophene-2-carboxamide] |
| AKT1 | N#CCCN1CCN(CCCN(C(=O)c2cccs2)c2nc(-c3cc4ccccc4o3)cs2)CC1 [N-(4-(benzofuran-2-yl)thiazol-2-yl)-N-(3-(4-(2-cyanoethyl)piperazin-1-yl)propyl)thiophene-2-carboxamide] |
| AKT1 | O=C(c1cccs1)N(CCCN1CCN(CCO)CC1)c1nc(-c2cc3ccccc3o2)cs1 [N-(4-(benzofuran-2-yl)thiazol-2-yl)-N-(3-(4-(2-hydroxyethyl)piperazin-1-yl)propyl)thiophene-2-carboxamide] |
| AKT1 | O=C(c1cccs1)N(CCCN1CCC(CCO)CC1)c1nc(-c2cc3ccccc3o2)cs1 [N-(4-(benzofuran-2-yl)thiazol-2-yl)-N-(3-(4-(2-hydroxyethyl)piperidin-1-yl)propyl)thiophene-2-carboxamide] |
| AKT1 | COCCN1CCN(CCCN(C(=O)c2cccs2)c2nc(-c3cc4ccccc4o3)cs2)CC1 [N-(4-(benzofuran-2-yl)thiazol-2-yl)-N-(3-(4-(2-methoxyethyl)piperazin-1-yl)propyl)thiophene-2-carboxamide] |
| AKT1 | CCN(CC)C1CCN(CCCN(C(=O)c2cccs2)c2nc(-c3cc4ccccc4o3)cs2)CC1 [N-(4-(benzofuran-2-yl)thiazol-2-yl)-N-(3-(4-(diethylamino)piperidin-1-yl)propyl)thiophene-2-carboxamide] |
| AKT1 | CN(C)CCCC(=O)NCCCN(C(=O)c1cccs1)c1nc(-c2cc3ccccc3o2)cs1 [N-(4-(benzofuran-2-yl)thiazol-2-yl)-N-(3-(4-(dimethylamino)butanamido)propyl)thiophene-2-carboxamide] |
| AKT1 | O=C(c1cccs1)N(CCCN1CCC(CO)CC1)c1nc(-c2cc3ccccc3o2)cs1 [N-(4-(benzofuran-2-yl)thiazol-2-yl)-N-(3-(4-(hydroxymethyl)piperidin-1-yl)propyl)thiophene-2-carboxamide] |
| AKT1 | CS(=O)(=O)N1CCN(CCCN(C(=O)c2cccs2)c2nc(-c3cc4ccccc4o3)cs2)CC1 [N-(4-(benzofuran-2-yl)thiazol-2-yl)-N-(3-(4-(methylsulfonyl)piperazin-1-yl)propyl)thiophene-2-carboxamide] |
| AKT1 | O=C(N1CCOCC1)N1CCN(CCCN(C(=O)c2cccs2)c2nc(-c3cc4ccccc4o3)cs2)CC1 [N-(4-(benzofuran-2-yl)thiazol-2-yl)-N-(3-(4-(morpholine-4-carbonyl)piperazin-1-yl)propyl)thiophene-2-carboxamide] |
| AKT1 | O=C(C1CCCO1)N1CCN(CCCN(C(=O)c2cccs2)c2nc(-c3cc4ccccc4o3)cs2)CC1 (stereo not shown) [N-(4-(benzofuran-2-yl)thiazol-2-yl)-N-(3-(4-(tetrahydrofuran-2-carbonyl)piperazin-1-yl)propyl)thiophene-2-carboxamide] |
| AKT1 | O=C(c1cccs1)N(CCCN1CCC(O)CC1)c1nc(-c2cc3ccccc3o2)cs1 [N-(4-(benzofuran-2-yl)thiazol-2-yl)-N-(3-(4-hydroxypiperidin-1-yl)propyl)thiophene-2-carboxamide] |
| AKT1 | CN1CCN(CCCN(C(=O)c2cccs2)c2nc(-c3cc4ccccc4o3)cs2)CC1 [N-(4-(benzofuran-2-yl)thiazol-2-yl)-N-(3-(4-methylpiperazin-1-yl)propyl)thiophene-2-carboxamide] |
| AKT1 | O=C(c1cccs1)N(CCCN1CCC(N2CCOCC2)CC1)c1nc(-c2cc3ccccc3o2)cs1 [N-(4-(benzofuran-2-yl)thiazol-2-yl)-N-(3-(4-morpholinopiperidin-1-yl)propyl)thiophene-2-carboxamide] |
| AKT1 | CN(CC(O)CO)C(=O)CCN(C(=O)c1cccs1)c1nc(-c2cc3ccccc3o2)cs1 (stereo not shown) [N-(4-(benzofuran-2-yl)thiazol-2-yl)-N-(3-((2,3-dihydroxypropyl)(methyl)amino)-3-oxopropyl)thiophene-2-carboxamide] |
| AKT1 | CN(C)CCN(C)C(=O)CCN(C(=O)c1cccs1)c1nc(-c2cc3ccccc3o2)cs1 [N-(4-(benzofuran-2-yl)thiazol-2-yl)-N-(3-((2-(dimethylamino)ethyl)(methyl)amino)-3-oxopropyl)thiophene-2-carboxamide] |

| Activity | SMILES |
| --- | --- |
| AKT1 | CN(CCC#N)C(=O)CCN(C(=O)c1cccs1)c1nc(-c2cc3ccccc3o2)cs1 [N-(4-(benzofuran-2-yl)thiazol-2-yl)-N-(3-((2-cyanoethyl)(methyl)amino)-3-oxopropyl)thiophene-2-carboxamide] |
| AKT1 | CN(CCO)C(=O)CCN(C(=O)c1cccs1)c1nc(-c2cc3ccccc3o2)cs1 [N-(4-(benzofuran-2-yl)thiazol-2-yl)-N-(3-((2-hydroxyethyl)(methyl)amino)-3-oxopropyl)thiophene-2-carboxamide] |
| AKT1 | O=C(CCN(C(=O)c1cccs1)c1nc(-c2cc3ccccc3o2)cs1)N(CCO)CCO [N-(4-(benzofuran-2-yl)thiazol-2-yl)-N-(3-(bis(2-hydroxyethyl)amino)-3-oxopropyl)thiophene-2-carboxamide] |
| AKT1 | O=C(c1cccs1)N(CCC(=O)N(CCCCO)C1CCCCC1)c1nc(-c2cc3ccccc3o2)cs1 [N-(4-(benzofuran-2-yl)thiazol-2-yl)-N-(3-(cyclohexyl(4-hydroxybutyl)amino)-3-oxopropyl)thiophene-2-carboxamide] |
| AKT1 | CCN(CC)CCCN(C(=O)c1cccs1)c1nc(-c2cc3ccccc3o2)cs1 [N-(4-(benzofuran-2-yl)thiazol-2-yl)-N-(3-(diethylamino)propyl)thiophene-2-carboxamide] |
| AKT1 | O=C(CCN(C(=O)c1cccs1)c1nc(-c2cc3ccccc3o2)cs1)NCc1ccoc1 [N-(4-(benzofuran-2-yl)thiazol-2-yl)-N-(3-(furan-3-ylmethylamino)-3-oxopropyl)thiophene-2-carboxamide] |
| AKT1 | CC(C)CN(C(=O)CCN(C(=O)c1cccs1)c1nc(-c2cc3ccccc3o2)cs1)C1CCS(=O)(=O)C1 (stereo not shown) [N-(4-(benzofuran-2-yl)thiazol-2-yl)-N-(3-(isobutyl(1,1-dioxo-tetrahydrothiophen-3-yl)amino)-3-oxopropyl)thiophene-2-carboxamide] |
| AKT1 | O=C(CCN(C(=O)c1cccs1)c1nc(-c2cc3ccccc3o2)cs1)N1Cc2ccccc2C1 [N-(4-(benzofuran-2-yl)thiazol-2-yl)-N-(3-(isoindolin-2-yl)-3-oxopropyl)thiophene-2-carboxamide] |
| AKT1 | CNCCN(C)C(=O)CCN(C(=O)c1cccs1)c1nc(-c2cc3ccccc3o2)cs1 [N-(4-(benzofuran-2-yl)thiazol-2-yl)-N-(3-(methyl(2-(methylamino)ethyl)amino)-3-oxopropyl)thiophene-2-carboxamide] |
| AKT1 | CN(C(=O)CCN(C(=O)c1cccs1)c1nc(-c2cc3ccccc3o2)cs1)c1ccncc1 [N-(4-(benzofuran-2-yl)thiazol-2-yl)-N-(3-(methyl(pyridin-4-yl)amino)-3-oxopropyl)thiophene-2-carboxamide] |
| AKT1 | O=C(c1cccs1)N(CCCN1CCCCC1)c1nc(-c2cc3ccccc3o2)cs1 [N-(4-(benzofuran-2-yl)thiazol-2-yl)-N-(3-(piperidin-1-yl)propyl)thiophene-2-carboxamide] |
| AKT1 | O=C(CCN(C(=O)c1cccs1)c1nc(-c2cc3ccccc3o2)cs1)N1CCOCC1 [N-(4-(benzofuran-2-yl)thiazol-2-yl)-N-(3-morpholino-3-oxopropyl)thiophene-2-carboxamide] |
| AKT1 | O=C(C1CCC1)N(CCCN1CCOCC1)c1nc(-c2cc3ccccc3o2)cs1 [N-(4-(benzofuran-2-yl)thiazol-2-yl)-N-(3-morpholinopropyl)cyclobutanecarboxamide] |
| AKT1 | O=C(c1ccco1)N(CCCN1CCOCC1)c1nc(-c2cc3ccccc3o2)cs1 [N-(4-(benzofuran-2-yl)thiazol-2-yl)-N-(3-morpholinopropyl)furan-2-carboxamide] |
| AKT1 | O=C(c1cccnc1)N(CCCN1CCOCC1)c1nc(-c2cc3ccccc3o2)cs1 [N-(4-(benzofuran-2-yl)thiazol-2-yl)-N-(3-morpholinopropyl)nicotinamide] |
| AKT1 | O=C(c1ccccn1)N(CCCN1CCOCC1)c1nc(-c2cc3ccccc3o2)cs1 [N-(4-(benzofuran-2-yl)thiazol-2-yl)-N-(3-morpholinopropyl)picolinamide] |
| AKT1 | O=C(c1cccs1)N(CCCN1CCOCC1)c1nc(-c2cc3ccccc3o2)cs1 [N-(4-(benzofuran-2-yl)thiazol-2-yl)-N-(3-morpholinopropyl)thiophene-2-carboxamide] |
| AKT1 | O=C(CCN(C(=O)c1cccs1)c1nc(-c2cc3ccccc3o2)cs1)NCCOc1ccccc1 [N-(4-(benzofuran-2-yl)thiazol-2-yl)-N-(3-oxo-3-(2-phenoxyethylamino)propyl)thiophene-2-carboxamide] |
